The values below come from patent US20090105172A1, “Stabilized Aptamers to PSMA and Their Use as Prostate Cancer Therapeutics” (priority 2005, published 2009).

For one series, the target named is T1, ECD PSMA (Homo sapiens, UniProt Q04609).
T1 construct: vector-derived N-terminal linker […]; made in house; host or cells: 293 Freestyle cells, pSecTag2B vector
The series is described as follows: Dot blot binding assay (nitrocellulose filter) with purified ECD PSMA. The conditions noted are these: A9 minimer, without tRNA. An excerpt: Protein Purification of ECD of PSMA: An I.M.A.G.E. clone (5202715) encoding full length recombinant human PSMA was purchased from Open Biosystems (Clone EHS1001-18533, Huntsville, Ala.). PCR was used to amplify the extracellular portion of the full length clone. An oligo with an N-terminal histidine tag was designed to engineer a construct which lacks the transmembrane domain residues 1-44. The his-tagged extracellular domain (ECD) was subcloned into the pSecTag2B expression vector (Invitrogen, Carlsbad, Calif.). The ECD of PSMA was purified in house from transfected 293 Freestyle cells (ATCC, Manassas, Va.). The amino acid sequence of the expressed protein comprising an N-terminal linker sequence of […] followed by eight Histidines is listed below: […] VSDr[…]a[…]r[…]rYV […] (SEQ ID NO 5)
Dot Blot Binding Analysis. Dot blot binding assays were performed throughout the selections to monitor the protein binding affinity of the pools. For initial pool screening, trace ^32P-labeled pool RNA was combined with PSMA and incubated at room temperature for 30 min in 1×SHMCK buffer pH 7.4 (20 mM Hepes pH 7.4, 120 mM NaCl, 5 mM KCl, 1 mM MgCl2, 1 mM CaCl2) plus 0.1 mg/mL tRNA in a final volume of 30 μl. The mixture was applied to a dot blot apparatus (Schleicher and Schuell Minifold-1 Dot Blot, Acrylic, Keene, N.H.), assembled (from top to bottom) with nitrocellulose, nylon, and gel blot membranes. RNA that is bound to protein is captured on the nitrocellulose filter; whereas the non-protein bound RNA is captured on the nylon filter. […] The Round 9 pool was cloned and screened in a single point dot blot assay using 100 nM PSMA (0 nM PSMA was used as a negative control). Clone transcripts were 5′ end labeled with ^32-P ATP. Likely binders were than assayed for KD determination by the blot assay conditions described directly above, but without tRNA, using an 8 point PSMA titration with a constant RNA concentration. […] Both of the clones screened were unique sequences in the Round 9 selection pool.
In order to identify the core structural elements required for ARC955 binding to PSMA, the 3′-boundaries of the clone was determined through alkaline hydrolysis. The parent RNA transcript was labeled at the 5′-end with γ-^32P ATP and T4 polynucleotide kinase. Radiolabeled ligands were subjected to partial alkaline hydrolysis and then selectively bound in solution to ECD PSMA (purified in house) at 100 nM before being passed through nitrocellulose filters (Centrex MF 1.5 mL, 0.45 μm, Schleicher & Schuell, Keene N.H.). Retained oligonucleotides were resolved on 8% denaturing polyacrylamide gels. The smallest oligonucleotide bound to PSMA defined the 3′-boundary. On the basis of the boundary experiments as well as visual inspection of predicted folds, truncated constructs were synthesized. Clones were then assayed by dot blot as previously described to determine their KD. […] The binding curve for ARC1091 in the dot blot assay is depicted in FIG. 5A, and the predicted secondary structure of ARC1091 is depicted in FIG. 5B. The KD and maximum % bound for the 3 minimized constructs with the overall highest PSMA affinity, as determined by a dot blot binding assay, are listed in Table 4. For the minimized rGmH aptamers described in Table 5 below, the guanosine triphosphates are 2′-OH and the adenosines triphosphates, cytidine triphosphates and uridine triphosphates are 2′-OMe. Unless noted otherwise, the individual sequences are represented in the 5′ to 3′ orientation. In some embodiments, the invention comprises aptamers with a nucleic acid sequence as described in Table 4 below. In some embodiments, the nucleic acid sequence of an aptamer described in Table 4 below additionally comprises a 3′ cap (e.g., an inverted dT cap), and/or 5′ amine (NH2) modification to facilitate chemical coupling, and/or conjugation to a high molecular weight, non-immunogenic compound (e.g., PEG). […]

In a further series the test system is LNCaP cells (PSMA+). Briefly: LNCaP FACS binding assay with fluorescein-labeled aptamers. The class given is cell-based. The following applies: relative to parent A9. The procedure:
To prepare aptamers for the FACS assay, PSMA aptamers were serially diluted (0-1 uM) in FACS buffer (1×DPBS w/Ca^++/Mg^++ (Gibco, Carlsbad, Calif.) supplemented with 10 mg/mL salmon sperm DNA & 0.2% Na Azide), in a V-bottom 96 well plate, at the concentrations to be tested. LNCaP and PC-3 cells (ATCC, Manassas, Va.) were harvested with trypsin, and 200,000 cells/well were counted, washed once with 1×DPBS (with Ca^++ and Mg^+) and resuspended in 200 μl of FACS Buffer. The 200 μl of cells in FACS buffer were added to individual wells of a new 96 well plate, pelleted by centrifugation (1300 rpm for 5 minutes), and resuspended in 100 μl of the appropriate concentration of diluted aptamer. FACS buffer, a-PSMA antibody (3C6) (Northwest Biotherapeutics, Bothell, Wash., Cat #: 60-5002) and an irrelevant fluorescein isothiocyanate (“FITC”) mouse IgG1 isotype control antibody (BD Pharmingen, San Diego, Calif., Cat#: 554679) were used as controls. The wells of aptamer/cell mixture were incubated at room temperature for 20-30 minutes.
After incubation, 180 μl of FACS buffer (plus 10 mg/mL ssDNA, and 0.2% Na Azide) was added to each well to quench the reaction and cells were pelleted by centrifugation.
Anti-fluorescein/Oregon Green®, rabbit IgG fraction, Alexa Fluor® 488 conjugate (Molecular Probes, Eugene, Oreg., Cat#: A11090) was diluted 1:100 in FACS buffer (100 μl/well) as the secondary antibody for the aptamer-FITC conjugates and FITC-mouse IgG isotype control. FITC Rat anti-mouse IgG1 (A85-1) (BD Pharmingen, San Diego, Calif., Cat#: 553443) was diluted in 1:100 in FACS Buffer as the secondary for the α-PSMA antibody. After centrifugation, the cell pellets were resuspended in 100 μl of the appropriate diluted secondary antibody, and incubated 10 minutes at room temperature. After incubation, 180 μl of FACS buffer was added to each well to quench the reaction, and cells were pelleted by centrifugation.
A tertiary antibody which recognizes the Alexa Fluor® 488 goat anti-rabbit IgG was prepared to further amplify the Alexa Fluor signal. Alexa Fluor® 488 goat anti-rabbit IgG (H+ L) (Molecular Probes, Eugene, Oreg., Cat#: A11034) was diluted 1:100 in FACS buffer, and the pelleted cells were resupsended in 100 μl of the tertiary antibody and incubated for 10 minutes at room temperature. […]
Cell samples were analyzed on a FACS Scan machine (Becton Dickinson, San Jose, Calif.) under the following parameters: FSC/SSC, FL-1/FSC, FL-3/FSC. The unstained and/or isotype controls were used to establish gating parameters, and the data was analyzed using Cell Quest Pro software version 5.1.1 (Becton Dickinson Immunocytometry Systems, San Jose, Calif.).
Background: A flow cytometer gives signals particle by particle.

T1 sequence (Q04609 with tags, fused parts or gaps): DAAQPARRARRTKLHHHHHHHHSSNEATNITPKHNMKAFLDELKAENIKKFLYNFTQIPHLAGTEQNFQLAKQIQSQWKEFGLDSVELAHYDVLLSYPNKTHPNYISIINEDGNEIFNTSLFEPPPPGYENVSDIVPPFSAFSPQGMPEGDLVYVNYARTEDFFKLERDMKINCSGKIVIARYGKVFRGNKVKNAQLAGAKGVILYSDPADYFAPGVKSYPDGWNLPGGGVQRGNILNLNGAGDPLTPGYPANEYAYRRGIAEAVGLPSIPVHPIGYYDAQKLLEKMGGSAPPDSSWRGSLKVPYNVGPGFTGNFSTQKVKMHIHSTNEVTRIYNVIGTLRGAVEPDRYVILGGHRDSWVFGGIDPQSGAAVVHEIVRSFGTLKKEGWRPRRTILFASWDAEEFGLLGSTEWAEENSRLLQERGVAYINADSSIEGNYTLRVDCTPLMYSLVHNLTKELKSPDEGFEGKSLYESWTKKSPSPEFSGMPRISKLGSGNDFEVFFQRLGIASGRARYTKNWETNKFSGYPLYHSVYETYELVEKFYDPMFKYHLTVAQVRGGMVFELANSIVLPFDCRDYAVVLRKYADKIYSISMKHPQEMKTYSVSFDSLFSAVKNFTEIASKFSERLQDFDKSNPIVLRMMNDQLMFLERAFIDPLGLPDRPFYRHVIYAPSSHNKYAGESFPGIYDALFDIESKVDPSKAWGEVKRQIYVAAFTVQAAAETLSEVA

As for “GGAGGAfCfCGAAAAAGAfCfCfUGAfCfUfUfCfUAfUAfCfUAAGfUfCfUAfCGfUfUfCfCfUfCfCA (GGAGGACCGAAAAAGACCUGACUUCUAUACUAAGUCUACGUUCCUCCA; 2'-fluoro at 7, 8, 17, 18, 19, 22, 23, 24, 25, 26, 28, 30, 31, 35, 36, 37, 39, 41, 42, 43, 44, 45, 46, 47, other sugars and backbone not given here) [ARC591, 48-nt minimer of A9]”, the Kd (in general, the free concentration of one partner at which half of the binding sites on the other are occupied at equilibrium, for simple one-to-one binding) with ECD PSMA is 3.4 nM. In the series with LNCaP cells (PSMA+), the “functional activity in the LNCaP FACS assay” value was “retained full functional activity”.
